Key:
[1] = test system: Human papillomavirus type 16; assay: Antiviral activity against HPV-16 infected in human W12-20850 cells after 4 days by non-radioactive hybrid capture technique; format: functional, organism-based, Human papillomavirus 16
[2] = (§1) Cytotoxicity against human HFF cells; format: cell-based; conditions: HFF cells
HFF = assay: as §1; format: cell-based; conditions: hff
[3] = Selectivity index, ratio of cytotoxicity against human keratinocytes to antiviral activity against HPV-16; format: toxicity; conditions: read-out: Selectivity Index
[4] = Selectivity index, ratio of cytotoxicity against african green monkey Vero cells to antiviral activity against HPV-16; format: toxicity, cell-based; conditions: read-out: Selectivity Index
[5] = Half life in rat at 10 mg/kg administered as suspension; format: ADME, organism-based; set-up: dose 10 mg/kg; conditions: in vivo
[6] = Volume of distribution in rat at 10 mg/kg administered as suspension; format: ADME, organism-based; set-up: dose 10 mg/kg; conditions: in vivo
[7] = Bioavailability in rat at 10 mg/kg administered as suspension; format: ADME, organism-based; conditions: in vivo
[8] = Clearance in rat at 10 mg/kg administered as suspension; format: ADME, organism-based; set-up: dose 10 mg/kg; conditions: in vivo
[9] = Human papillomavirus 16, W12-20850, 96 h

Row | SMILES | IC50 [1, 9] | CC50 [2] | also measured
1 | Brc1ccc2c3c([nH]c2c1)C(NCc1ccccc1)CCC3 (racemic) | 11.1 µM | > 40 µM | –
2 | C[C@H](N[C@H]1CCCc2c1[nH]c1ccc(Br)cc21)c1ccccc1 (racemic) | – | 22.9 µM | IC50 ([1]; w12-20850): 0.03 µM
3 | Brc1ccc2[nH]c3c(c2c1)CCCC3NC1Cc2ccccc2C1 (racemic) | 0.12 µM | 30.8 µM | –
4 | c1ccc(CNC2CCCc3c2[nH]c2ccccc32)cc1 (racemic) | 6.7 µM | 40.4 µM | –
5 | CCN(CC)CCNC1CCCc2c1[nH]c1ccc(C)cc21 (racemic) | > 30 µM | > 30 µM | –
6 | Brc1ccc2[nH]c3c(c2c1)CCCC3NCCc1ccccc1 (racemic) | 0.41 µM | 11.4 µM | –
7 | Cc1ccc2[nH]c3c(c2c1)CCC[C@H]3N[C@H](C)c1ccccc1 | 0.3 µM | 29 µM | –
8 | C[C@H](N[C@@H]1CCCc2c1[nH]c1ccc(Br)cc21)c1ccccc1 | 0.02 µM | 15 µM | –
9 | C[C@@H](N[C@H]1CCCc2c1[nH]c1ccc(Br)cc21)c1ccccc1 | > 0.5 µM | > 30 µM | –
10 | Cc1ccc2[nH]c3c(c2c1)CCCC3NC(C)c1ccccc1 (racemic) | 0.54 µM | 40 µM | –
11 | Clc1ccc2[nH]c3c(c2c1)CCCC3NCc1ccccc1 (racemic) | 0.33 µM | 27.9 µM | –
12 | C[C@H](N[C@H]1CCCc2c1[nH]c1ccc(Br)cc21)c1ccccc1 | – | – | IC50 ([1]; w12-20850): 2.85 µM; CC50 (HFF): 28.5 µM
13 | C[C@@H](N[C@@H]1CCCc2c1[nH]c1ccc(Br)cc21)c1ccccc1 | 0.03 µM | 9 µM | selectivity ratio [3]: > 300; selectivity ratio [4]: > 500; half-life [5]: 4.4 h; Vd [6]: 1.9 L/kg; bioavailability [7]: 47%; clearance [8]: 13.4 mL/min/kg
14 | COC(=O)c1ccc2[nH]c3c(c2c1)CCCC3NCc1ccccc1 (racemic) | 19.7 µM | 44.5 µM | –
15 | Cc1ccc2[nH]c3c(c2c1)CCCC3NC1Cc2ccccc2C1 (racemic) | 0.47 µM | 40 µM | –
16 | CCNC1CCCc2c1[nH]c1ccc(C)cc21 (racemic) | > 20 µM | > 20 µM | –
17 | Cc1ccc2[nH]c3c(c2c1)CCC[C@@H]3N[C@H](C)c1ccccc1 | 7.1 µM | 41 µM | –
18 | Cc1ccc2[nH]c3c(c2c1)CCC[C@H]3N[C@@H](C)c1ccccc1 | 0.2 µM | 29 µM | –
19 | Brc1ccc2[nH]c3c(c2c1)CCCC3NCc1ccccc1 (racemic) | 0.15 µM | 18.8 µM | –
20 | FC(F)(F)c1ccc2[nH]c3c(c2c1)CCCC3NCc1ccccc1 (racemic) | 1 µM | > 100 µM | –
21 | Cc1ccc2[nH]c3c(c2c1)CCCC3NCCc1ccccc1 (racemic) | 2.7 µM | 13.5 µM | –
22 | Fc1ccc2[nH]c3c(c2c1)CCCC3NCc1ccccc1 (racemic) | 1.6 µM | 35.9 µM | –
23 | Cc1ccc2[nH]c3c(c2c1)CCCC3NCCO (racemic) | > 30 µM | > 30 µM | –
24 | Cc1ccc2[nH]c3c(c2c1)CCCC3NCc1ccccc1 (racemic) | 1.9 µM | 21.3 µM | –
25 | O=[N+]([O-])c1ccc2[nH]c3c(c2c1)CCCC3NCc1ccccc1 (racemic) | 0.23 µM | 20.4 µM | –
26 | OCCNC1CCCc2c1[nH]c1ccc(Br)cc21 (racemic) | 6.83 µM | 20.1 µM | –
27 | COc1ccc2[nH]c3c(c2c1)CCCC3NCc1ccccc1 (racemic) | 7.6 µM | 57.9 µM | –
28 | Brc1cccc2c3c([nH]c12)C(NCc1ccccc1)CCC3 (racemic) | 11.4 µM | > 40 µM | –
29 | Cc1ccc2[nH]c3c(c2c1)CCC[C@@H]3N[C@@H](C)c1ccccc1 | 6.7 µM | 36 µM | –
30 | CC(C)(NC1CCCc2c1[nH]c1ccc(Br)cc21)c1ccccc1 (racemic) | 0.6 µM | > 40 µM | –
